These results are taken from paper PMC12108424, “Genetically Modified Mesenchymal Stromal/Stem Cells as a Delivery Platform for SE-33, a Cathelicidin LL-37 Analogue: Preclinical Pharmacokinetics and Tissue Distribution in C57BL/6 Mice” (Antibiotics, 2025).

Where no end group is shown, it is not given here.

Series [1] is described as follows: in vivo. On the set-up: species or system C57BL/6 mice. How it is done: (§1) The studies were conducted on sexually mature male C57BL/6 mice with an average body weight of 20 g and an age of 8 weeks. The animals were sourced from the “Andreevka”, branch of the Scientific Center of Biomedical Technologies of the Russian Federal Medical and Biological Agency (Russia). The mice underwent a 14-day acclimatization period. The animals were housed in individually ventilated polysulfone cages ISO RAIR 4 × 8 (LabProducts, Aberdeen, WA, USA) with Rehofix MK2000 corn cob bedding (J. Rettenmaier and Söhne GmbH, Rosenberg, Germany). The animal housing environment followed a 12-h light/dark cycle with an ad libitum access to water and standard laboratory feed. The group assignment was based on body weight, ensuring a no more than 10% deviation from the average group weight. All experimental procedures were approved by the Local Ethics Committee (LEC) of the Federal State Budgetary Educational Institution of Higher Education “Privolzhsky Research Medical University” Ministry of Health of the Russian Federation (Protocol No. 06, dated 29 April 2022) and adhered to the guidelines for the care and use of laboratory animals.
(§2) Immediately prior to administration, WJ-MSC-SE33 cells were resuspended in a saline solution (0.9% NaCl). The mice were divided into groups (n = 48) and fasted for 8 h before intravenous injection. The injection volume was calculated based on body weight. Single-dose administrations were 1 × 10^5 cells/mouse (0.5 × 10^7 cells/kg), 2.5 × 10^5 cells/mouse (1.25 × 10^7 cells/kg), and 5 × 10^5 cells/mouse (2.5 × 10^7 cells/kg) (Figure 4B). Repeated administrations were conducted on days 1, 3, and 5 at a dose of 1 × 10^5 cells/mouse (Figure 4B).
(§3) The 0 h time point represents samples obtained from animals prior to WJ-MSC-SE33 injection (pre-dose baseline). SE-33 concentrations at baseline were established as 0 μg/mL since the peptide was undetectable (<LLOQ) in all pre-dose samples, confirming the absence of endogenous expression. Blood samples were collected into tubes without an anticoagulant and centrifuged at 3000 rpm for 15 min at room temperature. Then, serum samples were isolated and placed in cryovials. Samples of peripheral tissues (lungs, liver, and spleen) were collected at similar time points. Blood and tissue samples were stored at −79 °C.
(§4) Thawed mouse serum was centrifuged at 12,000 rpm for 30 min using a MiniSpin centrifuge (Eppendorf, Hamburg, Germany). The supernatant was collected and diluted 20-fold with 20 mM TrisHCl (pH 7.8). For peripheral tissue samples, 100 mg of thawed tissue was weighed using Sartorius CPA225D scales (Sartorius, Göttingen, Germany) and homogenized in 1.6 mL of acidified ethanol (0.5 mL HCl in 1000 mL ethanol) using a Heidolph Diax 100 homogenizer (Heidolph Instruments, Schwabach, Germany) at 25,000 rpm on ice for 1 min. The homogenate was centrifuged at 12,000 rpm for 30 min. The supernatant was collected and diluted 20-fold with 20 mM Tris-HCl (pH 7.8).
(§5) To construct a protein that specifically binds to the SE-33 peptide ([…]), a complementary sequence with a high affinity to the SE-33 was calculated using the Antimicrobial Peptide Database APD3 [94, 95]. The sequence was cloned into a plasmid and expressed in E. coli strain BL21(DE3). The protein was then isolated and purified using a Ni-NTA column. Purified protein was conjugated with Epoxy-activated Sepharose 6B, creating a sorbent (Epoxy-Protein Sepharose) with a binding capacity of 240 μg/mL for the SE-33 peptide.
A column containing 5 mL of Epoxy-Protein Sepharose was equilibrated with 20 mM TrisHCl (pH 7.8). The sample was applied to the column via a 2 mL loop, followed by washing with 25 mL of 20 mM TrisHCl (pH 7.8). The SE-33 peptide was eluted with 5 mL of 75 mM NaCl in 20 mM TrisHCl (pH 7.8) without fractionation. The eluate enriched with the SE-33 peptide was subjected to solid-phase extraction. […]

The nature of series [2]: in vivo. The conditions noted are these: iv. Further details: species or system C57BL/6 mice. How it is done: as §1, §2
as §3, with “Blood samples were collected from the subclavian artery at 4, 8, 12, 16, 20, 24, 36, and 48 h post-administration (n = 6 animals/time point) (Figure 1B). […] The 0” for “The 0”
as §4, §5
A column containing 5 mL of Epoxy-Protein Sepharose was equilibrated with 20 mM TrisHCl (pH 7.8). The sample was applied to the column via a 2 mL loop, followed by washing with 25 mL of 20 mM TrisHCl (pH 7.8). The SE-33 peptide was eluted with 5 mL of 75 mM NaCl in 20 mM TrisHCl (pH 7.8) without fractionation. […]

Another series relates to E. coli. Further details: method as in PMID 38391576, doi:10.1134/S1068162019020158, PMID 40072070. The settings on record: in vitro; cited from earlier work.
For a further series, the system named is S. aureus. On the set-up: method as in PMID 38391576, doi:10.1134/S1068162019020158, PMID 40072070. The conditions noted are these: in vitro; cited from earlier work.
A further series has as its system fungi and yeast. On the set-up: method as in PMID 38391576, doi:10.1134/S1068162019020158, PMID 40072070. The settings on record: in vitro; cited from earlier work.
On the set-up of series [3]: species or system C57BL/6 mice. The conditions noted are these: mouse, in vivo. How it is done: The tissue availability and distribution of SE-33 peptide were further assessed using the following parameters: fT: tissue penetration factor. This parameter reflects the ratio of drug exposure in tissues relative to plasma or serum and is used to assess antimicrobial drug distribution at the target site and to guide therapy selection. In this study, fT was calculated using the following equation:(4) fT=AUC0–t(tissue)/AUC0–t(serum) This approach, commonly applied in evaluating drug distribution within extravascular compartments, particularly for antimicrobial agents, is consistent with its established definition in pharmacokinetics as the tissue-to-plasma AUC ratio [99, 100].

For “SETRPVLNRLFDKIRQVRKEFGKIKEKSRKFM [SE-33]”, in “in vivo [1]” (male, C57BL/6, mouse, iv), the exposure AUC(0-t) is 2010 ng·h/mL and the Tmax was found to be 8 h. In “in vivo [1]” (male, C57BL/6, mouse, iv, Cmax), the peak level (Cmax) was 142 ng/mL. In addition, in “in vivo [1]” (male, C57BL/6, mouse, iv, MRT0–∞), the MRT turned out to be 10.4 h. In “in vivo [1]” (male, C57BL/6, mouse, iv, T1/2 (elimination half-life)), the half-life was 4.8 h. Also, the “persistence of the peptide in tissues” value in “in vivo [1]” (mouse) is given as “up to 48 h”. In addition, in the series “in vivo [1]” (mouse, iv), the “SE-33 concentration at 8 h” value was 0.043 μg/mL, the “SE-33 level in liver exceeding that in the lungs” value came to 4 fold and the “SE-33 levels within 2 h post-intravenous administration” value is recorded as “no detectable SE-33 levels”. Also, in “in vivo [2]” (male, C57BL/6, mouse), the area under the curve (AUC) is 8210 ng·h/mL, the total exposure AUC(0-inf) came to 8050 ng·h/mL, the highest level (Cmax) was 233 ng/mL and the Tmax came out at 8 h. Moreover, the half-life in the series “in vivo [2]” (male, C57BL/6, mouse) is 23.1 h. In addition, the MRT in the series “in vivo [2]” (male, C57BL/6, mouse, MRT4–24) amounted to 34.2 h. In the series “in vivo [2]” (male, C57BL/6, mouse, MRT4–∞), this sequence yielded a mean residence time MRT of 31.4 h. The Tmax in the series “in vivo [2]” (mouse) stood at 4 h. The “minimum bactericidal concentration (MBC)” value in the series on E. coli was 20 µg/mL. The “minimum inhibitory concentration (MIC)” value in the series on S. aureus was 12.5 µg/mL. The “minimum inhibitory concentration (MIC)” value with fungi and yeast is 31.2 to 1024 µg/mL. Further, in series [3], the “increase of fT relative to the highest single dose” value is on record as 20.0% and the “rise of fT” value came to 25.0%.
